Consider 4 molecules from the NIST ThermoML archive (doi:10.1016/j.jct.2007.06.016).

The conditions of data set [1]: 298.15 K, 101.33 kPa, Liquid.
Data set [2] is described as follows: refractive index (Na D-line) (dimensionless). Conditions: 298.15 K; 101.33 kPa; Liquid; Standard Abbe refractometry.

Numbers after ± are expanded uncertainties.

`CCCCCCCCn1cc[n+](C)c1.O=S(=O)([N-]S(=O)(=O)C(F)(F)F)C(F)(F)F`: the mass density in data set [1] (Vibrating tube method) came out at 1320.76 ± 9.5 kg/m3. Besides, the refractive index in data set [2] is on record as 1.43331 ± 0.0012.

For `C1CCCCC1` [cyclohexane], the mass density in data set [1] came to 773.76 ± 0.52 kg/m3. In data set [2], the refractive index was 1.42403 ± 0.00068.

For `CCCCCCCCCCCC` [dodecane], in data set [1], the mass density is on record as 745.32 ± 0.91 kg/m3. In addition, the refractive index in data set [2] is recorded as 1.42011 ± 0.0007.

For `c1ccsc1` [thiophene], the mass density in data set [1] turned out to be 1058.5 ± 0.55 kg/m3. Also, the refractive index in data set [2] is on record as 1.52581 ± 0.0007.
